# Reference: patent US8575112B2, “Small peptide modulators of potassium channel trafficking” (University of Houston System, priority 2009, dated 2013)
# Key:
# Assay type in all cases: cell-based
# Slo1VEDEC = test: Cell-surface biotinylation assay, HEK293T cells expressing Myc-Slo1VEDEC, after peptide delivery; details: HEK293T cells expressing Myc-tagged Slo1VEDEC, 1 mg peptide delivered with PULSin, compared to R-PE control
# Method: (§1) HEK293T (human embryonic kidney) cells were grown in Dulbecco's modified Eagle's medium (Invitrogen) containing heat-inactivated 10% fetal bovine serum (FBS) and penicillin-streptomycin (Invitrogen) at 37° C. in a 5% CO2 incubator. Cells were transiently transfected for 24 to 48 hours using Lipofectamine 2000 (Invitrogen) in the serum-reduced medium OPTI-MEM, Invitrogen) following the manufacturer's instructions. The immortalized and undifferentiated mouse podocyte cell line was grown in RPMI1640 with 10% FBS supplied with 10 U/mL interferon-g (INF-γ) at 33° C. in a 5% CO2 incubator. Podocytes' differentiation was induced by removing INF-γ and switching to 37° C. in a 5% CO2 incubator for 14 days.
# (§2) Cell-surface biotinylation was carried out by labeling cells with 1 mg/mL EZ-Link Sulfo-NHS-Biotin reagents (Pierce) in PBS (137 mM NaCl, 10 mM Phosphate, 2.7 mM KCl, pH 7.4) at 4 C with gentle shaking for 1.5 hours, which was followed by incubating the labeled cells in the cold PBS containing 100 mM glycine for additional 20 minutes at 4° C. to stop the reaction. […]
# (§3) All samples were loaded and separated on 10% SDS-PAGE. […] Slo1 proteins were detected by primary antibodies, including mouse anti-Myc, mouse anti-HA, rabbit anti-VEDEC, rabbit anti-QEERL, and rabbit anti-Slo1 (APC107, Alomone labs) antibodies, as indicated. […]
# Slo1QEERL = test: Cell-surface biotinylation assay, HEK293T cells expressing Myc-Slo1QEERL, after peptide delivery; details: HEK293T cells expressing Myc-tagged Slo1QEERL by itself; 1 mg peptide delivered with PULSin; compared to R-PE control
# Method: as §1, §2, §3
# [1] = tested on: heterologously and endogenously expressed Slo1 channels; test: Intracellular delivery of VEDEC-motif peptides, surface expression of Slo1 channels (summary statement); details: intracellular delivery of peptide
# [2] = tested on: endogenous Ca2+-activated K+ channels (BKCa) in podocytes; test: Whole-cell recordings from differentiated mouse podocytes after peptide delivery
# Method: FIG. 7A depicts whole cell recording analyses are carried out in differentiated mouse podocytes treated with either R-PE (control) or IREVEDEC (SEQ ID NO: 9) peptides. The recording electrode contained free Ca^2+ of 5 μM and currents are evoked by a series of depolarizing steps from a holding potential of −60 mV. Representative whole-cell current traces are shown above bar graphs Left: R-PE control (Ctrl); Right: IREVEDEC (SEQ ID NO: 9) peptides. […] Asterisk indicates p<0.05.
# as §1
# Whole cell recordings were performed in HEK293T transiently expressing different Slo1 constructs using standard methods. […]
sequence,measurement,setting,value
"IREVEDEC (Octopetide modulator of Calcium activated Potassium channels) [NH2-IREVEDEC-COOH, octopeptide containing the VEDEC motif, synthesized by Peptide 2.0]",total expression of Slo1VEDEC,Slo1VEDEC,no effect
same,surface expression of Slo1VEDEC,Slo1VEDEC; densitometry of immunoblots,increases
same,surface expression of Slo1QEERL,Slo1QEERL,no effect
same,total expression of Slo1QEERL,Slo1QEERL,no effect
same,surface expression of heterologously and endogenously expressed Slo1 (BKCa) channels,[1],increase
same,current through Ca2+-activated K+ channels (current density at +60 mV),"[2]; differentiated mouse podocytes, 3 mg octopeptide with PULSin, electrode free Ca2+ 5 μM, vs R-PE control, n=33 cells, p<0.05",large increase
same,activation or deactivation kinetics of macroscopic currents,"[2]; mouse podocytes, whole-cell recording, data not shown",does not alter
